{
  "source": "patent US10189841B2",
  "about": "“Purinones as ubiquitin-specific protease 1 inhibitors” (Forma Therapeutics, Inc., priority 2015, dated 2019)",
  "data": [
    {"target": "USP1 (construct USP1 (I-785, GG670, 671AA)/UAF1 (I-677)-Flag) (Homo sapiens (Human), UniProt O94782, G670A/G671A)", "sequence (O94782 whole entry G670A/G671A)": "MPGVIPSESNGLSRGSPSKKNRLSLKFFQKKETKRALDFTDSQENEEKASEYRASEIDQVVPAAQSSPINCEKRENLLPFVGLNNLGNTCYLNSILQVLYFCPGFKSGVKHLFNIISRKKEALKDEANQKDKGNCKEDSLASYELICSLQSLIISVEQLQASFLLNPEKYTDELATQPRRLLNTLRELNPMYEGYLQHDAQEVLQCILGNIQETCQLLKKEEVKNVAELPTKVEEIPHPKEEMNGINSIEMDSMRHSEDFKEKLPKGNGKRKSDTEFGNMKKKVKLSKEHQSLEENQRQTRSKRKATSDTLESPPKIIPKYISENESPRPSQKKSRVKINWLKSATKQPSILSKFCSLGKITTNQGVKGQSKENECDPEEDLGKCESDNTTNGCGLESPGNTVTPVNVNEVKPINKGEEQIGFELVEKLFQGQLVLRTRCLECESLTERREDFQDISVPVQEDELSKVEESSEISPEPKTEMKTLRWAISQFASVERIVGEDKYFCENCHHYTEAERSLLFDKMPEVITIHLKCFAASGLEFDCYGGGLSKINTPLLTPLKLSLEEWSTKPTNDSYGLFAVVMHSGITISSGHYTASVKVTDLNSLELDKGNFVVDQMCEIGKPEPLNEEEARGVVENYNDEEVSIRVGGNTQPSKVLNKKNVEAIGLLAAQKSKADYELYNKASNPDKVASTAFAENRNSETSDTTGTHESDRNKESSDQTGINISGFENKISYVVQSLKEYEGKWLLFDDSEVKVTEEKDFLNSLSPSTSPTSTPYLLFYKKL", "sequence (Q8TAF3 whole entry partner)": "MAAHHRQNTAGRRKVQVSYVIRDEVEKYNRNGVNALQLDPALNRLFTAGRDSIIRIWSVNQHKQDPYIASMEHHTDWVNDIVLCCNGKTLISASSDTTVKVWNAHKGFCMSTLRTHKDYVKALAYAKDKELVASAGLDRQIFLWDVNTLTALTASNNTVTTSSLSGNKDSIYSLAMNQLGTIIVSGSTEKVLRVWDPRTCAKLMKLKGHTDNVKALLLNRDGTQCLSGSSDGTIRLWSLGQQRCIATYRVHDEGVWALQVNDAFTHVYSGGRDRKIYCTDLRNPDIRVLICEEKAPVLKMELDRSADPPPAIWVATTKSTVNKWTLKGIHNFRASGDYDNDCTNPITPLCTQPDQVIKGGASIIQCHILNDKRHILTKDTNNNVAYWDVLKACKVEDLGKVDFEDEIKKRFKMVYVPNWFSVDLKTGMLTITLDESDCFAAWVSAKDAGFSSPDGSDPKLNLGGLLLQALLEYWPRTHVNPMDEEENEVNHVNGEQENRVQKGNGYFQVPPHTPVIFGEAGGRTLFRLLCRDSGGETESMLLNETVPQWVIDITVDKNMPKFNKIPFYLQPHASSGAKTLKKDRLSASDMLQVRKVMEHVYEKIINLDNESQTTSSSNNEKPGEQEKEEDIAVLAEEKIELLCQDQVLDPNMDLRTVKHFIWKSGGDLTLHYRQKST", "test": "Ubiquitin-Rhodamine 110 assay for USP1 activity", "format": "biochemical", "conditions": "USP1/UAF1 25 pM, Ub-Rh110 25 nM, 30 min preincubation", "method_in_brief": "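Ub-Rh110 (25 nM, ≪Km) cleavage read at ex 485/em 535 in Tris pH 8.0, CaCl2, GSH, Prionex, Triton X-100. The screen used 10 µM compound, 100 pM USP1/UAF1 and 45 min at RT.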", "units": {"IC50": "nM"}, "values": [
      {"molecule": "CC(C)c1cccnc1-c1ncc2c(n1)n(Cc1ccc(-n3cccn3)cc1)c(=O)n2C", "note": "[Compound I-517, 9-(4-(1H-Pyrazol-1-yl)benzyl)-2-(3-isopropylpyridin-2-yl)-7-methyl-7,9-dihydro-8H-purin-8-one]", "IC50": "> 2000"},
      {"molecule": "COCCn1cc(-c2ccc(Cn3c(=O)[nH]c4cnc(-c5ccccc5C(C)C)nc43)cc2)cn1", "note": "[Compound I-518, 2-(2-Isopropylphenyl)-9-(4-(1-(2-methoxyethyl)-1H-pyrazol-4-yl)benzyl)-7,9-dihydro-8H-purin-8-one]", "IC50": "50 to 200"},
      {"molecule": "CC(C)c1ccccc1-c1ncc2[nH]c(=O)n(Cc3ccc(-c4cnn(C5CCOCC5)c4)cc3)c2n1", "note": "[Compound I-519, 2-(2-Isopropylphenyl)-9-(4-(1-(tetrahydro-2H-pyran-4-yl)-1H-pyrazol-4-yl)benzyl)-7,9-dihydro-8H-purin-8-one]", "IC50": "200 to 2000"},
      {"molecule": "CC(C)c1ccccc1-c1ncc2[nH]c(=O)n(Cc3ccc(-c4cnn(CCN(C)C)c4)cc3)c2n1", "note": "[Compound I-520, 9-(4-(1-(2-(Dimethylamino)ethyl)-1H-pyrazol-4-yl)benzyl)-2-(2-isopropylphenyl)-7,9-dihydro-8H-purin-8-one]", "IC50": "200 to 2000"},
      {"molecule": "CC(C)c1ccccc1-c1ncc2[nH]c(=O)n(Cc3ccc(-c4cn(CCN(C)C)nn4)cc3)c2n1", "note": "[Compound I-521, 9-(4-(1-(2-(Dimethylamino)ethyl)-1H-1,2,3-triazol-4-yl)benzyl)-2-(2-isopropylphenyl)-7,9-dihydro-8H-purin-8-one]", "IC50": "200 to 2000"},
      {"molecule": "CC(C)c1ccccc1-c1ncc2[nH]c(=O)n(Cc3ccc(-c4cn(CCO)nn4)cc3)c2n1", "note": "[Compound I-522, 9-(4-(1-(2-Hydroxyethyl)-1H-1,2,3-triazol-4-yl)benzyl)-2-(2-isopropylphenyl)-7,9-dihydro-8H-purin-8-one]", "IC50": "200 to 2000"},
      {"molecule": "CC(C)c1ccccc1-c1ncc2[nH]c(=O)n(Cc3ccc(-c4cn[nH]n4)cc3)c2n1", "note": "[Compound I-523, 9-(4-(1H-1,2,3-triazol-5-yl)benzyl)-2-(2-isopropylphenyl)-7,9-dihydro-8H-purin-8-one]", "IC50": "50 to 200"},
      {"molecule": "COC(=O)c1ccccc1-c1ncc2[nH]c(=O)n(Cc3ccc(-c4nc(C(F)(F)F)cn4C)cc3)c2n1", "note": "[Compound I-524, Methyl 2-(9-(4-(1-Methyl-4-(trifluoromethyl)-1H-imidazol-2-yl)benzyl)-8-oxo-8,9-dihydro-7H-purin-2-yl)benzoate]", "IC50": "< 50"},
      {"molecule": "Cn1cc(C(F)(F)F)nc1-c1ccc(Cn2c(=O)[nH]c3cnc(-c4ccccc4C(C)(C)O)nc32)cc1", "note": "[Compound I-525, 2-(2-(2-hydroxypropan-2-yl)phenyl)-9-(4-(1-methyl-4-(trifluoromethyl)-1H-imidazol-2-yl)benzyl)-7,9-dihydro-8H-purin-8-one]", "IC50": "< 50"},
      {"molecule": "Cn1cc(C(F)(F)F)nc1-c1ccc(Cn2c(=O)[nH]c3cnc(-c4ccccc4C4(O)CC4)nc32)cc1", "note": "[Compound I-526, 2-(2-(1-Hydroxycyclopropyl)phenyl)-9-(4-(1-methyl-4-(trifluoromethyl)-1H-imidazol-2-yl)benzyl)-7,9-dihydro-8H-purin-8-one]", "IC50": "< 50"},
      {"molecule": "CCC(=O)c1ccccc1-c1ncc2[nH]c(=O)n(Cc3ccc(-c4nc(C(F)(F)F)cn4C)cc3)c2n1", "note": "[Compound I-527, 9-(4-(1-methyl-4-(trifluoromethyl)-1H-imidazol-2-yl)benzyl)-2-(2-propionylphenyl)-7,9-dihydro-8H-purin-8-one]", "IC50": "200 to 2000"},
      {"molecule": "CC(C)(O)c1ccccc1-c1ncc2[nH]c(=O)n(Cc3ccc(-n4cccn4)cc3)c2n1", "note": "[Compound I-528, 9-(4-(1H-Pyrazol-1-yl)benzyl)-2-(2-(2-hydroxypropan-2-yl)phenyl)-7,9-dihydro-8H-purin-8-one]", "IC50": "200 to 2000"},
      {"molecule": "CC(C)c1ccccc1-c1ncc2c(n1)n(Cc1ccc(-c3ncc[nH]3)cc1)c(=O)n2C", "note": "[Compound I-529, 9-(4-(1H-Imidazol-2-yl)benzyl)-2-(2-isopropylphenyl)-7-methyl-7,9-dihydro-8H-purin-8-one]", "IC50": "50 to 200"},
      {"molecule": "CC(C)c1ccccc1-c1ncc2c(n1)n(Cc1ccc(-n3cccn3)cc1)c(=O)n2C(C)C(=O)O", "note": "(centres unmarked) [Compound I-530, 2-(9-(4-(1H-Pyrazol-1-yl)benzyl)-2-(2-isopropylphenyl)-8-oxo-8,9-dihydro-7H-purin-7-yl)propanoic acid]", "IC50": "200 to 2000"},
      {"molecule": "CNc1nc(-c2cccnc2OC(F)F)nc2c1[nH]c(=O)n2Cc1ccc(-c2nc(C(F)(F)F)cn2C)cc1", "note": "[Compound I-531, 2-(2-(Difluoromethoxy)pyridin-3-yl)-9-(4-(1-methyl-4-(trifluoromethyl)-1H-imidazol-2-yl)benzyl)-6-(methylamino)-7,9-dihydro-8H-purin-8-one]", "IC50": "< 50"},
      {"molecule": "CNc1nc(-c2ccccc2C(C)C)nc2c1[nH]c(=O)n2Cc1ccc(-c2nc(C(F)(F)F)cn2C)cc1", "note": "[Compound I-532, 2-(2-Isopropylphenyl)-9-(4-(1-methyl-4-(trifluoromethyl)-1H-imidazol-2-yl)benzyl)-6-(methylamino)-7,9-dihydro-8H-purin-8-one]", "IC50": "< 50"},
      {"molecule": "CC(C)c1ccccc1-c1nc(N(C)C)c2[nH]c(=O)n(Cc3ccc(-c4nc(C(F)(F)F)cn4C)cc3)c2n1", "note": "[Compound I-533, 6-(Dimethylamino)-2-(2-isopropylphenyl)-9-(4-(1-methyl-4-(trifluoromethyl)-1H-imidazol-2-yl)benzyl)-7,9-dihydro-8H-purin-8-one]", "IC50": "< 50"},
      {"molecule": "CC(=O)c1nc(-c2ccccc2C(C)C)nc2c1[nH]c(=O)n2Cc1ccc(-c2nc(C(F)(F)F)cn2C)cc1", "note": "[Compound I-534, 6-Acetyl-2-(2-isopropylphenyl)-9-(4-(1-methyl-4-(trifluoromethyl)-1H-imidazol-2-yl)benzyl)-7,9-dihydro-8H-purin-8-one]", "IC50": "50 to 200"},
      {"molecule": "COc1nc(-c2ccccc2C(C)C)nc2c1[nH]c(=O)n2Cc1ccc(-c2nc(C(F)(F)F)cn2C)cc1", "note": "[Compound I-535, 2-(2-Isopropylphenyl)-6-methoxy-9-(4-(1-methyl-4-(trifluoromethyl)-1H-imidazol-2-yl)benzyl)-7,9-dihydro-8H-purin-8-one]", "IC50": "< 50"},
      {"molecule": "Cc1cnc(-c2ccc(Cn3c(=O)[nH]c4cnc(-c5ccccc5C(C)C)nc43)cc2)n1C(C)C", "note": "[Compound I-536, 9-(4-(1-Isopropyl-5-methyl-1H-imidazol-2-yl)benzyl)-2-(2-isopropylphenyl)-7,9-dihydro-8H-purin-8-one]", "IC50": "< 50"},
      {"molecule": "Cc1cn(C(C)C)c(-c2ccc(Cn3c(=O)[nH]c4cnc(-c5ccccc5C(C)C)nc43)cc2)n1", "note": "[Compound I-537, 9-(4-(1-isopropyl-4-methyl-1H-imidazol-2-yl)benzyl)-2-(2-isopropylphenyl)-7,9-dihydro-8H-purin-8-one]", "IC50": "< 50"},
      {"molecule": "CC(=O)Nc1cn(C)c(-c2ccc(Cn3c(=O)[nH]c4cnc(-c5ccccc5C(C)C)nc43)cc2)n1", "note": "[Compound I-538, N-(2-(4-((2-(2-isopropylphenyl)-8-oxo-7,8-dihydro-9H-purin-9-yl)methyl)phenyl)-1-methyl-1H-imidazol-4-yl)acetamide]", "IC50": "50 to 200"},
      {"molecule": "CC(C)c1ccccc1-c1ncc2[nH]c(=O)n(Cc3ccc(-c4cn[nH]c4)cc3)c2n1", "note": "[Compound I-539, 9-(4-(1H-Pyrazol-4-yl)benzyl)-2-(2-isopropylphenyl)-7,9-dihydro-8H-purin-8-one]", "IC50": "200 to 2000"}
    ]}
  ]
}
